# From patent publication US20210369724A1, “COMBINATION OF ATR KINASE INHIBITORS WITH 2,3-DIHYDROIMIDAZO[1,2-C]QUINAZOLINE COMPOUNDS” (Bayer Aktiengesellschaft, priority 2018, published 2021)
# Like-named read-outs stand apart in the source and are kept apart here. Marks after values point to notes of the source that are not given here.
# What was measured:
# 22Rv1 = assay: Proliferation assay of prostate cancer cell lines with R1881 (Cell Titre-Glo, 144 h); type: cell-based, human; conditions: 22Rv1, 0.1 nM R1881, 144 hour exposure, single compound
# Procedure: (§3) Tumor cells were propagated in a humidified 37° C. incubator in their respective growth medium supplemented with 10% fetal calf serum. […] Cell viability was assessed after 144 hour exposure, except for PC-3 cells where measurement took place after 96 hour exposure, with the Cell Titre-Glo Luminescent Cell Viability Assay (Promega).
# NCI-H460 = assay: Proliferation assay of cell lines treated with Compound A, Compound B and fixed-ratio combinations (Cell Titre-Glo, 96 h); type: cell-based, human; conditions: NCI-H460, single compound, 96 hour exposure
# Procedure: (§4) Tumor cells were propagated in a humidified 37° C. incubator in their respective growth medium supplemented 10% fetal calf serum. […] Cell viability was assessed after 96 hour exposure with the Cell Titre-Glo Luminescent Cell Viability Assay (Promega). […] IC50 isobolograms were plotted with the actual concentrations of the two compounds on the x- and y-axis, and the combination index (CI) was calculated according to the median-effect model of Chou-Talalay [Chou T. C.
# SNU-449 = assay: Proliferation assay, mono and fixed-ratio combinations (Cell Titre-Glo, 96 h); type: cell-based, human; conditions: SNU-449, single compound, 96 hour exposure
# Procedure: (§5) Tumor cells were propagated in a humidified 37° C. incubator in their respective growth medium supplemented 10% fetal calf serum. […] Cell viability was assessed after 96 hour exposure with the Cell Titre-Glo Luminescent Cell Viability Assay (Promega).
# LNCaP = assay: Proliferation assay of prostate cancer cell lines with R1881 (Cell Titre-Glo, 144 h); type: cell-based, human; conditions: 0.3 nM R1881, 144 hour exposure, single compound
# Procedure: as §3
# [1] = tested on: IGR-OV1 endometrial cancer xenograft; assay: Human IGR-OV1 endometrial cancer xenograft model; type: in vivo, female NMRI nude mice; conditions: IGR-OV1; 10 mg/kg, i.v., once daily, 2 days on/5 days off, days 1, 2 each week
# Procedure: (§6) The oral application volume was 10 ml/kg and the intravenous application volume 5 ml/kg. The time interval between two applications per day was 6-7 h. […] The tumor size and the body weight were determined three times weekly. Changes in the body weight compared to the initial body weight at the start of treatment were a measure of treatment-related toxicity (>10%=critical, stoppage in treatment until recovery, >20%=toxic, termination). The tumor area was detected by means of an electronic caliper gauge [length (mm)×width (mm)]. In vivo anti-tumor efficacy is presented as T/C ratio (Treatment/Control) calculated with tumor areas at day of termination of control group by the formula [(tumor area of treatment group at day x)−(tumor area of treatment group at day before first treatment)]/[(tumor area control group at day x)−(tumor area of control group at day before first treatment)]. […] A one-way analysis of variance was performed and differences to the control were compared by a pair-wise comparison procedure (Dunn's method).
# IGR-OV1 cancer xenograft = assay: Human IGR-OV1 endometrial cancer xenograft model; type: in vivo, female NMRI nude mice; conditions: IGR-OV1, day 55 after tumor inoculation
# Procedure: as §6
# C4-2B = assay: Proliferation assay of prostate cancer cell lines with R1881 (Cell Titre-Glo, 144 h); type: cell-based, human; conditions: 0.3 nM R1881, 144 hour exposure, single compound
# Procedure: as §3
# [2] = tested on: SUM-149 breast cancer xenograft; assay: Human SUM-149 breast cancer xenograft model; type: in vivo, female NMRI nude mice
# Procedure: as §6
# [3] = tested on: pancreatic cancer cell line Capan-1; assay: Full matrix combination, 72-hour proliferation assay (CellTiter-Glo); type: cell-based; conditions: Capan-1, single agent
# Procedure: (§1) Percentage of control (DMSO) in tumor cell growth assay in vitro is used for the assessment of combination effects.
# (§2) The efficacy parameters were the effects in a 72-hour assay. Tumor cells were cultured in 37° C. incubator in their respective growth medium and serum according to the protocol from providers. […] Cell viability was assessed after 72 hour exposure with the Cell Titre-Glo Luminescent Cell Viability Assay (Promega).
# [4] = tested on: ovarian cancer cell lines SK-OV-3; assay: as above; type: cell-based; conditions: SK-OV-3, single agent Compound A
# Procedure: as §1, §2
# [5] = tested on: small cell lung cancer cell line NCI-H1048; assay: as above; type: cell-based
# Procedure: as §1, §2
# OVCAR-3 = assay: 72-hour growth assay of ovary cancer cell lines (Cell Titre-Glo); type: cell-based, human; conditions: OVCAR-3, single compound, 72 hour exposure
# Procedure: (§7) The effects of combinations of the present invention were evaluated using combination index isobologram analysis for in vitro assessment. The efficacy parameters were the effects in a 72-hour growth assay. Tumor cells were propagated in a humidified 37° C. incubator in their respective growth medium (RPMI) supplemented with 10% fetal calf serum. […] Cell viability was assessed after 72 hour exposure with the Cell Titre-Glo Luminescent Cell Viability Assay (Promega). […] IC50 isobolograms were plotted with the actual concentrations of the two compounds on the x- and y-axis, and the combination index (CI) was calculated according to the median-effect model of Chou-Talalay [Chou T. C.
# IGR-OV1 = assay: Proliferation assay, mono and fixed-ratio combinations (Cell Titre-Glo, 96 h); type: cell-based, human; conditions: IGR-OV1, single compound, 96 hour exposure
# Procedure: as §4
# SK-OV-3 = assay: as above; type: cell-based, human; conditions: SK-OV-3, single compound, 96 hour exposure
# Procedure: as §4
# SUM-149 = assay: as above; type: cell-based, human; conditions: SUM-149, single compound, 96 hour exposure
# Procedure: as §5
# Huh-7 = assay: as above; type: cell-based, human; conditions: Huh-7, single compound, 96 hour exposure
# Procedure: as §4
# PC-3 = assay: Proliferation assay of prostate cancer cell lines with R1881 (Cell Titre-Glo, 96 h); type: cell-based, human; conditions: PC-3, 0.1 nM R1881, 96 hour exposure, single compound
# Procedure: as §3
# VCaP = assay: Proliferation assay of prostate cancer cell lines with R1881 (Cell Titre-Glo, 144 h); type: cell-based, human; conditions: 0.1 nM R1881, 144 hour exposure, single compound
# Procedure: as §3
# PLC/PRF/5 = assay: Proliferation assay, mono and fixed-ratio combinations (Cell Titre-Glo, 96 h); type: cell-based, human; conditions: PLC/PRF/5, single compound, 96 hour exposure
# Procedure: as §5
# [6] = tested on: Ri-1 B cell lymphoma xenograft; assay: Human Ri-1 B cell lymphoma xenograft model; type: in vivo, female NOD/SCID mice
# Procedure: as §6
# MDA-MB-468 = assay: Proliferation assay, mono and fixed-ratio combinations (Cell Titre-Glo, 96 h); type: cell-based, human; conditions: MDA-MB-468, single compound, 96 hour exposure
# Procedure: as §5
# HCT 116 = assay: as above; type: cell-based, human; conditions: HCT 116, single compound, 96 hour exposure
# Procedure: as §4
# [7] = tested on: 22Rv1 prostate cancer xenograft; assay: Human 22Rv1 prostate cancer xenograft model; type: in vivo, male Fox Chase SCID mice
# Procedure: as §6
# A2780 = assay: 72-hour growth assay of ovary cancer cell lines (Cell Titre-Glo); type: cell-based, human; conditions: A2780, single compound, 72 hour exposure
# Procedure: as §7
# [8] = SUM-149, 10 mg/kg, i.v., once daily, 2 days on/5 days off, days 1, 2 each week
# [9] = Ri-1, 10 mg/kg, i.v., once daily, 2 days on/5 days off, days 1, 2 each week
compound,measurement,setting,value
"COc1c(OCCCN2CCOCC2)ccc2c1N=C(NC(=O)c1cnc(N)nc1)N1CCN=C21.Cl.Cl [Compound A, 2-amino-N-[7-methoxy-8-(3-morpholin-4-ylpropoxy)-2,3-dihydroimid-azo[1,2-c]quinazolin-5-yl]pyrimidine-5-carboxamide dihydrochloride]",IC50,22Rv1,0.05 µM
same,IC50,NCI-H460,0.063 µM
same,IC50,SNU-449,0.1 µM
same,IC50,LNCaP,0.008 µM
same,Max. weight loss (%),[1],−6%
same,T/C,[1],0.32*
same,Anti-tumor efficacy of monotherapy compared to control,IGR-OV1 cancer xenograft,good to moderate and statistically significant improved anti-tumor efficacy
same,IC50,C4-2B,0.092 µM
same,Anti-tumor efficacy of monotherapy compared to control,"[2]; SUM-149, day 49 after tumor inoculation",weak to moderate and statistically significant improved anti-tumor efficacy
same,Max. weight loss (%),[2]; [8],−10%
same,T/C,[2]; [8],0.58*
same,Concentration at which single agent led to moderate anti-proliferation effects,[3],0.025 µM
same,Concentration at which single agent showed anti-proliferative effects,[4],0.025 µM
same,Concentration at which treatment led to tumor killing,"[5]; NCI-H1048, single agent Compound A, 72-hour proliferation assay",0.025 µM
same,IC50,OVCAR-3,0.12 µM
same,IC50,IGR-OV1,0.019 µM
same,IC50,SK-OV-3,0.082 µM
same,IC50,SUM-149,0.01 µM
same,IC50,Huh-7,0.021 µM
same,IC50,PC-3,0.1 µM
same,IC50,VCaP,0.013 µM
same,IC50,PLC/PRF/5,0.18 µM
same,Anti-tumor efficacy of monotherapy compared to control,"[6]; Ri-1, day 38 after tumor inoculation",good and statistically significant improved anti-tumor efficacy
same,Max. weight loss (%),[6]; [9],−11%
same,T/C,[6]; [9],0.09*
same,IC50,MDA-MB-468,0.28 µM
same,IC50,HCT 116,0.095 µM
same,Anti-tumor efficacy of monotherapy compared to control,"[7]; 22Rv1, at the day of control group termination",weak to moderate and statistically significant improved anti-tumor efficacy
same,Max. weight loss (%),"[7]; 22Rv1, 14 mg/kg, i.v., once daily, 2 days on/5 days off, days 1, 2 each week",−8%
same,T/C,"[7]; 22Rv1, 14 mg/kg, i.v., once daily, 2 days on/5 days off, days 1, 2 each week, tumor area at termination of control group",0.51*
same,IC50,A2780,0.0374 µM
"C[C@@H]1COCCN1c1cc(-c2ccnn2C)c2ccnc(-c3ccn[nH]3)c2n1 [Compound B, 2-[(3R)-3-methylmorpholin-4-yl]-4-(1-methyl-1H-pyrazol-5-yl)-8-(1H-pyrazol-5-yl)-1,7-naphthyridine]",Concentration at which treatment led to tumor killing,[5],0.253 µM
